Test results from US9296723B2, “NAMPT inhibitors” (AbbVie Inc., priority 2012, dated 2016).

Legend:
NAMPT [1] = target: T1, NAMPT (Homo sapiens, UniProt P43490); assay: Time-Resolved Fluorescence Resonance Energy Transfer (TR-FRET) Binding Assay of NAMPT; settings: 6.8 nM NAMPT, 200 nM probe, equilibrated 3 hours, no substrates
Procedure, shortened: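 IC50s come from four-parameter logistic fits of control-normalized Em520/Em495 TR-FRET ratios (Ex 337 nm) against compound concentration. Before reading, enzyme, probe, antibody and compound equilibrated for 3 h at room temperature.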

NAMPT [2] = target: T1, NAMPT; assay: TR-FRET Binding Assay of NAMPT with PRPP; settings: 2 nM NAMPT, 2 nM probe, 200 µM PRPP and 2.5 mM ATP, equilibrated 16 hours
Procedure: Time-Resolved Fluorescence Resonance Energy Transfer (TR-FRET) Binding Assay of NAMPT with PRPP
Compound handling and data processing were identical to the assay in the absence of substrates (above). Final concentrations were 1× assay buffer, 2% DMSO, 2 nM NAMPT, 2 nM probe, 1 nM Tb-anti-His antibody (Invitrogen #PV5895), 200 µM PRPP and 2.5 mM ATP. Reactions were equilibrated for 16 hours prior to measurement to allow for potential enzymatic modification of test compounds.

PC3 cells = assay: NAMPT Cell Proliferation Assay (Cell Titer Glo); format: cell-based; settings: Homo sapiens, PC-3, 120 h, incubated 5 days, cell viability
Procedure, shortened: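 Viability measured by Cell Titer Glo luminescence after 5-day exposure of attached PC3 cells to compound, dosed as 10-fold serial dilutions ([…]) in RPMI/10% FBS at 37 °C and 5% CO2. Percent inhibition fitted to sigmoidal dose-response curves for IC50.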

T1 sequence (P43490 whole entry): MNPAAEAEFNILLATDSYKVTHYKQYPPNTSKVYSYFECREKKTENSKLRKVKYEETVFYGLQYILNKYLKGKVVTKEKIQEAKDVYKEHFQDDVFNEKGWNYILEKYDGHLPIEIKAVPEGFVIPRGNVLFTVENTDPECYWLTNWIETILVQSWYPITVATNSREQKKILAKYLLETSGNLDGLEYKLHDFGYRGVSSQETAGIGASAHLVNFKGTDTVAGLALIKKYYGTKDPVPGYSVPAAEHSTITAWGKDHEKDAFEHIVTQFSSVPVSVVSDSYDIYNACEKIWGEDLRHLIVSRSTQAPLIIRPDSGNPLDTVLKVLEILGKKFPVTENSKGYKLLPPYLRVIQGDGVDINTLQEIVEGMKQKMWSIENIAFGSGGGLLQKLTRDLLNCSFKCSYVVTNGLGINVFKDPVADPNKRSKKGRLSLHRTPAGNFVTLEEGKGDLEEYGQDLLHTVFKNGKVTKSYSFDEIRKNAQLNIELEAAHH

Row | SMILES | IC50 (NAMPT [1]) | IC50 (NAMPT [2]) | IC50 (PC3 cells)
1 | O=C(Nc1ccc(OC2CCN(C(=O)c3cccs3)CC2)cc1)N1CC(c2cccnc2)C1 [Example 32, 3-(pyridin-3-yl)-N-(4-{[1-(thiophen-2-ylcarbonyl)piperidin-4-yl]oxy}phenyl)azetidine-1-carboxamide] | 18.8 nM | 0.209 nM | 58.7 nM
2 | O=C(Nc1ccc(OC2CCN(C(=O)c3ccsc3)CC2)cc1)N1CC(c2cccnc2)C1 [Example 33, 3-(pyridin-3-yl)-N-(4-{[1-(thiophen-3-ylcarbonyl)piperidin-4-yl]oxy}phenyl)azetidine-1-carboxamide] | 56.1 nM | 0.43 nM | 68.7 nM
3 | CC(=O)N1CCC(C(=O)N2CCC(Oc3ccc(NC(=O)N4CC(c5cccnc5)C4)cc3)CC2)CC1 [Example 34, N-[4-({1-[(1-acetylpiperidin-4-yl)carbonyl]piperidin-4-yl}oxy)phenyl]-3-(pyridin-3-yl)azetidine-1-carboxamide] | 50.7 nM | 0.264 nM | 62.4 nM
4 | CC1CC1C(=O)N1CCC(Oc2ccc(NC(=O)N3CC(c4cccnc4)C3)cc2)CC1 (stereo not drawn) [Example 35, N-[4-({1-[(2-methylcyclopropyl)carbonyl]piperidin-4-yl}oxy)phenyl]-3-(pyridin-3-yl)azetidine-1-carboxamide] | 89.2 nM | 0.492 nM | 90.2 nM
5 | O=C(CCN1CCOCC1)N1CCC(Oc2ccc(NC(=O)N3CC(c4cccnc4)C3)cc2)CC1 [Example 37, N-[4-({1-[3-(morpholin-4-yl)propanoyl]piperidin-4-yl}oxy)phenyl]-3-(pyridin-3-yl)azetidine-1-carboxamide] | 85.4 nM | 0.174 nM | 72.9 nM
6 | CN1CCN(CCC(=O)N2CCC(Oc3ccc(NC(=O)N4CC(c5cccnc5)C4)cc3)CC2)CC1 [Example 38, N-[4-({1-[3-(4-methylpiperazin-1-yl)propanoyl]piperidin-4-yl}oxy)phenyl]-3-(pyridin-3-yl)azetidine-1-carboxamide] | 34.3 nM | 0.201 nM | 83.6 nM
7 | O=C(CCN1CCCC1)N1CCC(Oc2ccc(NC(=O)N3CC(c4cccnc4)C3)cc2)CC1 [Example 39, 3-(pyridin-3-yl)-N-[4-({1-[3-(pyrrolidin-1-yl)propanoyl]piperidin-4-yl}oxy)phenyl]azetidine-1-carboxamide] | 90.5 nM | 0.338 nM | 115 nM
8 | O=C(CC1CC1)N1CCC(Oc2ccc(NC(=O)N3CC(c4cccnc4)C3)cc2)CC1 [Example 40, N-(4-{[1-(cyclopropylacetyl)piperidin-4-yl]oxy}phenyl)-3-(pyridin-3-yl)azetidine-1-carboxamide] | 50.5 nM | 0.419 nM | 26.4 nM
9 | CCC(C)CC(=O)N1CCC(Oc2ccc(NC(=O)N3CC(c4cccnc4)C3)cc2)CC1 (stereo not drawn) [Example 41, N-(4-{[1-(3-methylpentanoyl)piperidin-4-yl]oxy}phenyl)-3-(pyridin-3-yl)azetidine-1-carboxamide] | 76.8 nM | 0.448 nM | 69.8 nM
10 | CC(C)CCC(=O)N1CCC(Oc2ccc(NC(=O)N3CC(c4cccnc4)C3)cc2)CC1 [Example 42, N-(4-{[1-(4-methylpentanoyl)piperidin-4-yl]oxy}phenyl)-3-(pyridin-3-yl)azetidine-1-carboxamide] | 43.8 nM | 0.27 nM | 100 nM
11 | CCCC(=O)N1CCC(Oc2ccc(NC(=O)N3CC(c4cccnc4)C3)cc2)CC1 [Example 43, N-{4-[(1-butanoylpiperidin-4-yl)oxy]phenyl}-3-(pyridin-3-yl)azetidine-1-carboxamide] | 23.7 nM | 0.234 nM | 28 nM
12 | CC(C)(C)C(=O)N1CCC(Oc2ccc(NC(=O)N3CC(c4cccnc4)C3)cc2)CC1 [Example 44, N-(4-{[1-(2,2-dimethylpropanoyl)piperidin-4-yl]oxy}phenyl)-3-(pyridin-3-yl)azetidine-1-carboxamide] | 44.6 nM | 0.315 nM | 38.5 nM
13 | CC(C)(C)CC(=O)N1CCC(Oc2ccc(NC(=O)N3CC(c4cccnc4)C3)cc2)CC1 [Example 45, N-(4-{[1-(3,3-dimethylbutanoyl)piperidin-4-yl]oxy}phenyl)-3-(pyridin-3-yl)azetidine-1-carboxamide] | 34.3 nM | 0.223 nM | 63.4 nM
14 | CCOCC(=O)N1CCC(Oc2ccc(NC(=O)N3CC(c4cccnc4)C3)cc2)CC1 [Example 46, N-(4-{[1-(ethoxyacetyl)piperidin-4-yl]oxy}phenyl)-3-(pyridin-3-yl)azetidine-1-carboxamide] | 93.1 nM | 0.226 nM | 44.2 nM

Other lines, results leading:

Row | IC50 (NAMPT [1]) | IC50 (NAMPT [2]) | IC50 (PC3 cells) | SMILES
15 | 30.3 nM | 0.268 nM | 64 nM | O=C(Nc1ccc(OC2CCN(C(=O)C3CC3)CC2)cc1)N1CC(c2cccnc2)C1 [Example 47, N-(4-{[1-(cyclopropylcarbonyl)piperidin-4-yl]oxy}phenyl)-3-(pyridin-3-yl)azetidine-1-carboxamide]
16 | 150 nM | 0.245 nM | 80.1 nM | O=C(NCC1CCOC1)c1ccc(NC(=O)N2CC(c3cccnc3)C2)cc1 (stereo not drawn) [Example 49, 3-(pyridin-3-yl)-N-{4-[(tetrahydrofuran-3-ylmethyl)carbamoyl]phenyl}azetidine-1-carboxamide]
17 | 17.2 nM | 0.303 nM | 1.78 nM | CC(C)(O)C(=O)N1CCC(c2ccc(NC(=O)N3CC(c4cccnc4)C3)cc2)CC1 [Example 51, N-{4-[1-(2-hydroxy-2-methylpropanoyl)piperidin-4-yl]phenyl}-3-(pyridin-3-yl)azetidine-1-carboxamide]
18 | 6.85 nM | 0.222 nM | 3.58 nM | O=C(Nc1ccc(C2CCN(C(=O)c3ccccc3)CC2)cc1)N1CC(c2cccnc2)C1 [Example 57, N-[4-(1-benzoylpiperidin-4-yl)phenyl]-3-(pyridin-3-yl)azetidine-1-carboxamide]
19 | 38.5 nM | 0.364 nM | 68.5 nM | CC(C)(C)OC(=O)N1CCC(c2ccc(NC(=O)N3CC(c4cccnc4)C3)cc2)C1 (stereo not drawn) [Example 59, tert-butyl 3-[4-({[3-(pyridin-3-yl)azetidin-1-yl]carbonyl}amino)phenyl]pyrrolidine-1-carboxylate]
20 | 20.9 nM | 0.31 nM | 30.7 nM | CC(C)(C)OC(=O)N1CC[C@H](Oc2ccc(NC(=O)N3CC(c4cccnc4)C3)cc2)C1 [Example 61, tert-butyl (3S)-3-[4-({[3-(pyridin-3-yl)azetidin-1-yl]carbonyl}amino)phenoxy]pyrrolidine-1-carboxylate]
21 | 91.5 nM | 0.467 nM | 69.7 nM | CC(C)(C)OC(=O)N1CC(c2ccc(NC(=O)N3CC(c4cccnc4)C3)cc2)C1 [Example 62, tert-butyl 3-[4-({[3-(pyridin-3-yl)azetidin-1-yl]carbonyl}amino)phenyl]azetidine-1-carboxylate]
22 | 44.6 nM | 0.39 nM | 12 nM | CC(C)(C)OC(=O)N1CC(Oc2ccc(NC(=O)N3CC(c4cccnc4)C3)cc2)C1 [Example 63, tert-butyl 3-[4-({[3-(pyridin-3-yl)azetidin-1-yl]carbonyl}amino)phenoxy]azetidine-1-carboxylate]
23 | 52.1 nM | 0.171 nM | 71.1 nM | O=C(CC1CCOCC1)N1CCC(c2ccc(NC(=O)N3CC(c4cccnc4)C3)cc2)C1 (stereo not drawn) [Example 64, 3-(pyridin-3-yl)-N-{4-[1-(tetrahydro-2H-pyran-4-ylacetyl)pyrrolidin-3-yl]phenyl}azetidine-1-carboxamide]
24 | 173 nM | 0.171 nM | 78.5 nM | O=C(Nc1ccc(C2CCN(C(=O)[C@H]3CCCO3)C2)cc1)N1CC(c2cccnc2)C1 (stereo partly drawn) [Example 67, 3-(pyridin-3-yl)-N-(4-{1-[(2R)-tetrahydrofuran-2-ylcarbonyl]pyrrolidin-3-yl}phenyl)azetidine-1-carboxamide]
25 | 92.2 nM | 0.421 nM | 73.1 nM | CC(C)(O)C(=O)N1CCC(c2ccc(NC(=O)N3CC(c4cccnc4)C3)cc2)C1 (stereo not drawn) [Example 70, N-{4-[1-(2-hydroxy-2-methylpropanoyl)pyrrolidin-3-yl]phenyl}-3-(pyridin-3-yl)azetidine-1-carboxamide]
26 | 20.1 nM | 0.184 nM | 10.7 nM | O=C(Nc1ccc(C2CCN(C(=O)c3ccccc3)C2)cc1)N1CC(c2cccnc2)C1 (stereo not drawn) [Example 71, N-[4-(1-benzoylpyrrolidin-3-yl)phenyl]-3-(pyridin-3-yl)azetidine-1-carboxamide]
27 | 65.6 nM | 0.211 nM | 77.7 nM | O=C(CC(F)(F)F)N1CCC(c2ccc(NC(=O)N3CC(c4cccnc4)C3)cc2)C1 (stereo not drawn) [Example 72, 3-(pyridin-3-yl)-N-{4-[1-(3,3,3-trifluoropropanoyl)pyrrolidin-3-yl]phenyl}azetidine-1-carboxamide]
28 | 156 nM | 0.663 nM | 84.5 nM | O=C(Nc1ccc(C2CCN(C(=O)C3CC3)C2)cc1)N1CC(c2cccnc2)C1 (stereo not drawn) [Example 73, N-{4-[1-(cyclopropylcarbonyl)pyrrolidin-3-yl]phenyl}-3-(pyridin-3-yl)azetidine-1-carboxamide]
